Assay results: ChEMBL document CHEMBL4665836, “Overcoming β-Lactam resistance in Pseudomonas aeruginosa using non-canonical tobramycin-based antibiotic adjuvants” (2020)

Legend:
Format in all cases: functional
Pseudomonas aeruginosa [1] = assay: Potentiation of ceftazidime-induced antibacterial activity against wild type Pseudomonas aeruginosa PAO1 assessed as fold reduction in ceftazidime MIC at 8 uM
Pseudomonas aeruginosa [2] = assay: Potentiation of ceftazidime-induced antibacterial activity against carbapenem-resistant Pseudomonas aeruginosa 88949 clinical isolate assessed as fold reduction in ceftazidime MIC at 8 uM in presence of beta-lactamase inhibitor, avi-bactam
Pseudomonas aeruginosa [3] = assay: Potentiation of aztreonam-induced antibacterial activity against carbapenem and colistin-resistant Pseudomonas aeruginosa 101243 clinical isolate assessed as aztreonam MIC at 8 uM by checkerboard assay (reference value: 32 ug/ml)
Pseudomonas aeruginosa [4] = assay: Potentiation of imipenem-induced antibacterial activity against carbapenem-resistant Pseudomonas aeruginosa 262-101856 clinical isolate assessed as imipenem MIC at 8 uM by checkerboard assay (reference value: 32 ug/ml)
Pseudomonas aeruginosa [5] = assay: Potentiation of ceftazidime-induced antibacterial activity against carbapenem-resistant Pseudomonas aeruginosa PAO200 harboring mexAB-oprM efflux deficient mutant assessed as ceftazidime MIC at 8 uM by checkerboard assay (reference value: 1 ug/ml)
Pseudomonas aeruginosa [6] = assay: Potentiation of imipenem-induced antibacterial activity against carbapenem-resistant Pseudomonas aeruginosa 109084 clinical isolate assessed as fold reduction in imipenem MIC at 8 uM in presence of beta-lactamase inhibitor, rele-bactam
Pseudomonas aeruginosa [7] = assay: Potentiation of aztreonam-induced antibacterial activity against carbapenem-resistant Pseudomonas aeruginosa 86052 clinical isolate assessed as aztreonam MIC at 8 uM by checkerboard assay (reference value: 64 ug/ml)
Pseudomonas aeruginosa [8] = assay: Potentiation of ceftazidime-induced antibacterial activity against carbapenem-resistant Pseudomonas aeruginosa 264-104354 clinical isolate assessed as ceftazidime MIC at 8 uM by checkerboard assay (reference value: 128 ug/ml)
Pseudomonas aeruginosa [9] = assay: Potentiation of ceftazidime-induced antibacterial activity against carbapenem-resistant Pseudomonas aeruginosa 101885 clinical isolate assessed as ceftazidime MIC at 8 uM by checkerboard assay (reference value: 8 ug/ml)
Pseudomonas aeruginosa [10] = assay: Potentiation of ceftazidime-induced antibacterial activity against carbapenem and colistin-resistant Pseudomonas aeruginosa 101243 clinical isolate assessed as ceftazidime MIC at 8 uM by checkerboard assay (reference value: 64 ug/ml)
Pseudomonas aeruginosa [11] = assay: Potentiation of piperacillin-induced antibacterial activity against wild type Pseudomonas aeruginosa PAO1 assessed as fold reduction in piperacillin MIC at 8 uM
Pseudomonas aeruginosa [12] = assay: Potentiation of ceftazidime-induced antibacterial activity against carbapenem-resistant Pseudomonas aeruginosa 108590 clinical isolate assessed as fold reduction in ceftazidime MIC at 8 uM in presence of beta-lactamase inhibitor, avi-bactam
Pseudomonas aeruginosa [13] = assay: Potentiation of aztreonam-induced antibacterial activity against carbapenem-resistant Pseudomonas aeruginosa 264-104354 clinical isolate assessed as aztreonam MIC at 8 uM by checkerboard assay (reference value: 32 ug/ml)
Pseudomonas aeruginosa [14] = assay: Potentiation of ceftazidime-induced antibacterial activity against carbapenem-resistant Pseudomonas aeruginosa PAO750 harboring and mexAB-oprM/mexCD-oprJ/mexEF-oprN/mexJK/mexXY/opmH efflux deficient mutant assessed as ceftazidime MIC at 8 uM by checkerboard assay (reference value: 0.5 ug/ml)
Pseudomonas aeruginosa [15] = assay: Potentiation of imipenem-induced antibacterial activity against carbapenem-resistant Pseudomonas aeruginosa 108590 clinical isolate assessed as imipenem MIC at 8 uM by checkerboard assay (reference value: 16 ug/ml)
Pseudomonas aeruginosa [16] = assay: Potentiation of ceftazidime-induced antibacterial activity against carbapenem-resistant Pseudomonas aeruginosa 88949 clinical isolate assessed as ceftazidime MIC at 8 uM by checkerboard assay (reference value: 64 ug/ml)
Pseudomonas aeruginosa [17] = assay: Potentiation of aztreonam-induced antibacterial activity against carbapenem-resistant Pseudomonas aeruginosa 107092 clinical isolate assessed as aztreonam MIC at 8 uM by checkerboard assay (reference value: 64 ug/ml)
Pseudomonas aeruginosa [18] = assay: Potentiation of piperacillin-induced antibacterial activity against wild type Pseudomonas aeruginosa PAO1 assessed as piperacillin MIC at 8 uM by checkerboard assay (reference value: 8 ug/ml)
Pseudomonas aeruginosa [19] = assay: Potentiation of imipenem-induced antibacterial activity against carbapenem-resistant Pseudomonas aeruginosa 109084 clinical isolate assessed as imipenem MIC at 8 uM by checkerboard assay (reference value: 16 ug/ml)
Pseudomonas aeruginosa [20] = assay: Potentiation of imipenem-induced antibacterial activity against carbapenem-resistant Pseudomonas aeruginosa 264-104354 clinical isolate assessed as imipenem MIC at 8 uM by checkerboard assay (reference value: 16 ug/ml)
Pseudomonas aeruginosa [21] = assay: Potentiation of ceftazidime-induced antibacterial activity against carbapenem and colistin-resistant Pseudomonas aeruginosa 91433 clinical isolate assessed as ceftazidime MIC at 8 uM by checkerboard assay (reference value: 4 ug/ml)
Pseudomonas aeruginosa [22] = assay: Potentiation of imipenem-induced antibacterial activity against carbapenem-resistant Pseudomonas aeruginosa 86052 clinical isolate assessed as imipenem MIC at 8 uM by checkerboard assay (reference value: 32 ug/ml)
Pseudomonas aeruginosa [23] = assay: Potentiation of ceftazidime-induced antibacterial activity against carbapenem-resistant Pseudomonas aeruginosa 86052 clinical isolate assessed as ceftazidime MIC at 8 uM by checkerboard assay (reference value: 64 ug/ml)
Pseudomonas aeruginosa [24] = assay: Potentiation of imipenem-induced antibacterial activity against carbapenem-resistant Pseudomonas aeruginosa 88949 clinical isolate assessed as fold reduction in imipenem MIC at 8 uM in presence of beta-lactamase inhibitor, rele-bactam
Pseudomonas aeruginosa [25] = assay: Potentiation of imipenem-induced antibacterial activity against carbapenem-resistant Pseudomonas aeruginosa 107092 clinical isolate assessed as fold reduction in imipenem MIC at 8 uM in presence of beta-lactamase inhibitor, rele-bactam
Pseudomonas aeruginosa [26] = assay: Potentiation of imipenem-induced antibacterial activity against carbapenem and colistin-resistant Pseudomonas aeruginosa 91433 clinical isolate assessed as imipenem MIC at 8 uM by checkerboard assay (reference value: 8 ug/ml)
Pseudomonas aeruginosa [27] = assay: Potentiation of ceftazidime-induced antibacterial activity against carbapenem-resistant Pseudomonas aeruginosa 109084 clinical isolate assessed as fold reduction in ceftazidime MIC at 8 uM in presence of beta-lactamase inhibitor, avi-bactam
Pseudomonas aeruginosa [28] = assay: Potentiation of aztreonam-induced antibacterial activity against carbapenem-resistant Pseudomonas aeruginosa 109084 clinical isolate assessed as aztreonam MIC at 8 uM by checkerboard assay (reference value: 64 ug/ml)
Pseudomonas aeruginosa [29] = assay: Antibacterial activity against Pseudomonas aeruginosa PAO200 harboring mexAB-oprM efflux deficient mutant
Pseudomonas aeruginosa [30] = assay: Potentiation of ceftazidime-induced antibacterial activity against carbapenem-resistant Pseudomonas aeruginosa 108590 clinical isolate assessed as ceftazidime MIC at 8 uM by checkerboard assay (reference value: 32 ug/ml)
Pseudomonas aeruginosa [31] = assay: Potentiation of aztreonam-induced antibacterial activity against carbapenem-resistant Pseudomonas aeruginosa 100036 clinical isolate assessed as aztreonam MIC at 8 uM by checkerboard assay (reference value: 16 ug/ml)
Pseudomonas aeruginosa [32] = assay: Potentiation of aztreonam-induced antibacterial activity against carbapenem-resistant Pseudomonas aeruginosa 88949 clinical isolate assessed as aztreonam MIC at 8 uM by checkerboard assay (reference value: 32 ug/ml)
Pseudomonas aeruginosa [33] = assay: Potentiation of aztreonam-induced antibacterial activity against carbapenem-resistant Pseudomonas aeruginosa 101885 clinical isolate assessed as aztreonam MIC at 8 uM by checkerboard assay (reference value: 16 ug/ml)

| Structure (SMILES) | fold change (FC) (Pseudomonas aeruginosa [1]) | fold change (FC) (Pseudomonas aeruginosa [2]) | MIC (Pseudomonas aeruginosa [3]) | MIC (Pseudomonas aeruginosa [4]) | MIC (Pseudomonas aeruginosa [5]) | fold change (FC) (Pseudomonas aeruginosa [6]) | MIC (Pseudomonas aeruginosa [7]) | MIC (Pseudomonas aeruginosa [8]) | MIC (Pseudomonas aeruginosa [9]) | MIC (Pseudomonas aeruginosa [10]) | fold change (FC) (Pseudomonas aeruginosa [11]) | fold change (FC) (Pseudomonas aeruginosa [12]) | MIC (Pseudomonas aeruginosa [13]) | MIC (Pseudomonas aeruginosa [14]) | MIC (Pseudomonas aeruginosa [15]) | MIC (Pseudomonas aeruginosa [16]) | MIC (Pseudomonas aeruginosa [17]) | MIC (Pseudomonas aeruginosa [18]) | MIC (Pseudomonas aeruginosa [19]) | MIC (Pseudomonas aeruginosa [20]) | further results |
| --- | --- | --- | --- | --- | --- | --- | --- | --- | --- | --- | --- | --- | --- | --- | --- | --- | --- | --- | --- | --- | --- |
| N=C(N)NC[C@H]1O[C@H](O[C@H]2[C@H](OCCCCCCCCCCCCN3CCN(c4cc5c(cc4F)c(=O)c(C(=O)O)cn5C4CC4)CC3)[C@@H](O[C@H]3O[C@H](CO)[C@@H](O)[C@H](NC(=N)N)[C@H]3O)[C@H](NC(=N)N)C[C@@H]2NC(=N)N)[C@H](NC(=N)N)C[C@@H]1O.O=C(O)C(F)(F)F.O=C(O)C(F)(F)F.O=C(O)C(F)(F)F.O=C(O)C(F)(F)F.O=C(O)C(F)(F)F.O=C(O)C(F)(F)F | 2 | 16 | 4 µg/mL | 16 µg/mL | 0.25 µg/mL | 16 | 32 µg/mL | 128 µg/mL | 2 µg/mL | 16 µg/mL | 2 | 16 | 32 µg/mL | 0.25 µg/mL | 4 µg/mL | 32 µg/mL | 32 µg/mL | 8 µg/mL | 16 µg/mL | 16 µg/mL | MIC (Pseudomonas aeruginosa [21]): 4 µg/mL; MIC (Pseudomonas aeruginosa [22]): 16 µg/mL; MIC (Pseudomonas aeruginosa [23]): 32 µg/mL; fold change (FC) (Pseudomonas aeruginosa [24]): 16; fold change (FC) (Pseudomonas aeruginosa [25]): 16; MIC (Pseudomonas aeruginosa [26]): 8 µg/mL; fold change (FC) (Pseudomonas aeruginosa [27]): 16; MIC (Pseudomonas aeruginosa [28]): 32 µg/mL; MIC (Pseudomonas aeruginosa [29]): 16 µg/mL; MIC (Pseudomonas aeruginosa [30]): 2 µg/mL; MIC (Pseudomonas aeruginosa [31]): 16 µg/mL; MIC (Pseudomonas aeruginosa [32]): 32 µg/mL; MIC (Pseudomonas aeruginosa [33]): 4 µg/mL |
| NC[C@H]1O[C@H](O[C@H]2[C@H](OCCCCc3cn(CCCCO[C@@H]4[C@@H](O)[C@H](N)C[C@H](N)[C@H]4O[C@H]4O[C@H](CN)[C@@H](O)C[C@H]4N)nn3)[C@@H](O)[C@H](N)C[C@@H]2N)[C@H](N)C[C@@H]1O.O=C(O)C(F)(F)F.O=C(O)C(F)(F)F.O=C(O)C(F)(F)F.O=C(O)C(F)(F)F.O=C(O)C(F)(F)F.O=C(O)C(F)(F)F.O=C(O)C(F)(F)F.O=C(O)C(F)(F)F | 2 | 16 | 8 µg/mL | 4 µg/mL | 0.25 µg/mL | 16 | 32 µg/mL | 32 µg/mL | 1 µg/mL | 32 µg/mL | 2 | 16 | 8 µg/mL | 0.13 µg/mL | 8 µg/mL | 64 µg/mL | 32 µg/mL | 8 µg/mL | 16 µg/mL | 8 µg/mL | MIC (Pseudomonas aeruginosa [21]): 0.5 µg/mL; MIC (Pseudomonas aeruginosa [22]): 16 µg/mL; MIC (Pseudomonas aeruginosa [23]): 64 µg/mL; fold change (FC) (Pseudomonas aeruginosa [24]): 16; fold change (FC) (Pseudomonas aeruginosa [25]): 16; MIC (Pseudomonas aeruginosa [26]): 8 µg/mL; fold change (FC) (Pseudomonas aeruginosa [27]): 16; MIC (Pseudomonas aeruginosa [28]): 16 µg/mL; MIC (Pseudomonas aeruginosa [29]): > 128 µg/mL; MIC (Pseudomonas aeruginosa [30]): 32 µg/mL; MIC (Pseudomonas aeruginosa [31]): 4 µg/mL; MIC (Pseudomonas aeruginosa [32]): 16 µg/mL; MIC (Pseudomonas aeruginosa [33]): 4 µg/mL |
| Cl.Cl.Cl.Cl.Cl.Cl.NC[C@H]1O[C@H](O[C@H]2[C@H](OCCCCCCCCCCCCN3CCN(c4cc5c(cc4F)c(=O)c(C(=O)O)cn5C4CC4)CC3)[C@@H](O[C@H]3O[C@H](CO)[C@@H](O)[C@H](N)[C@H]3O)[C@H](N)C[C@@H]2N)[C@H](N)C[C@@H]1O | 2 | 16 | 4 µg/mL | 4 µg/mL | 0.06 µg/mL | 16 | 8 µg/mL | 16 µg/mL | 1 µg/mL | 8 µg/mL | 2 | 16 | 8 µg/mL | 0.03 µg/mL | 0.25 µg/mL | 32 µg/mL | 8 µg/mL | 2 µg/mL | 8 µg/mL | 4 µg/mL | MIC (Pseudomonas aeruginosa [21]): 2 µg/mL; MIC (Pseudomonas aeruginosa [22]): 8 µg/mL; MIC (Pseudomonas aeruginosa [23]): 32 µg/mL; fold change (FC) (Pseudomonas aeruginosa [24]): 16; fold change (FC) (Pseudomonas aeruginosa [25]): 16; MIC (Pseudomonas aeruginosa [26]): 2 µg/mL; fold change (FC) (Pseudomonas aeruginosa [27]): 16; MIC (Pseudomonas aeruginosa [28]): 16 µg/mL; MIC (Pseudomonas aeruginosa [29]): 4 µg/mL; MIC (Pseudomonas aeruginosa [30]): 0.5 µg/mL; MIC (Pseudomonas aeruginosa [31]): 4 µg/mL; MIC (Pseudomonas aeruginosa [32]): 8 µg/mL; MIC (Pseudomonas aeruginosa [33]): 1 µg/mL |
